Data on 26 compounds can be found in ChEMBL document CHEMBL1129763, “Acylhydrazones as M1/M3 selective muscarinic agonists” (Bioorg Med Chem Lett, 1996).

Assay [1] addresses T1, Muscarinic acetylcholine receptor M1 (Rattus norvegicus, UniProt P08482).
T1 sequence (P08482 whole entry): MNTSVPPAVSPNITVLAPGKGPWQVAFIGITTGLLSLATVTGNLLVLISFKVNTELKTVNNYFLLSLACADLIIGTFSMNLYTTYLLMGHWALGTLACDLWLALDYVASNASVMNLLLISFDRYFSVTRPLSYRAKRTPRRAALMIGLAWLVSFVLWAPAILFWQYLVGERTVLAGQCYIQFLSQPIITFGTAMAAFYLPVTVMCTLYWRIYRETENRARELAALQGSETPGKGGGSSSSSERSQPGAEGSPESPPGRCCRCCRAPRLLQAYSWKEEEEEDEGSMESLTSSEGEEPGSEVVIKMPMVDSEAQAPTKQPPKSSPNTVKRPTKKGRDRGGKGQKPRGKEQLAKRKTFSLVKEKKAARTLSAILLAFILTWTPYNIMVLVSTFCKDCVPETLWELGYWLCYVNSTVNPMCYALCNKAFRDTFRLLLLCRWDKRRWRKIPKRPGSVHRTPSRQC
In words: Ability to displace [3H]- pirenzepine from M1 receptor in rat hippocampal membranes. Type of assay: cell membranes, Hippocampus.

Assay [2] addresses Muscarinic acetylcholine receptor M3 (Cavia porcellus) (UniProt Q8VH26). In words: Compound was evaluated for intrinsic activity at M3 receptor by measuring isometric contractions of the isolated guinea pig trachea. Type of assay: tissue-based.

pKi: −log10 of the molar value.

Chain of Muscarinic acetylcholine receptor M3 (Cavia porcellus) (Q8VH26 1-587): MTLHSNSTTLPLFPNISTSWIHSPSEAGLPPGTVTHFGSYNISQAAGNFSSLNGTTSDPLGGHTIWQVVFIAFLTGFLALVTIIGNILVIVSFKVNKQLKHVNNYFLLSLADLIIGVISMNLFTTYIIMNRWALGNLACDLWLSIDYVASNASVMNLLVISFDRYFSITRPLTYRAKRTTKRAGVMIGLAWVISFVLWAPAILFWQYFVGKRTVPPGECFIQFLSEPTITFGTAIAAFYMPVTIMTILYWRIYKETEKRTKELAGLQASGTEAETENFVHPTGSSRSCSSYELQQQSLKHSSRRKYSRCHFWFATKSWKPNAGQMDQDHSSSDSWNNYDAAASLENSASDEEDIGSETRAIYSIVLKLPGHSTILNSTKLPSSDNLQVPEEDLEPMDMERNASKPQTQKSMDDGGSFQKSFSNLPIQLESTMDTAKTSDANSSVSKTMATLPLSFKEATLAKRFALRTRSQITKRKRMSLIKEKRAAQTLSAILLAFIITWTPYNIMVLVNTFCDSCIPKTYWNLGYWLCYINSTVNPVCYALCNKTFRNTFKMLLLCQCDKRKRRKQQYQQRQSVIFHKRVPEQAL

The term pKi denotes the negative decadic logarithm of the Ki, by convention in mol/L. The low end stands for a large Ki, the high end for a small Ki. As for `CC1OC2(CCN(C)CC2)C/C1=N\NC(=O)CCCCC1CCCCC1` (centres undefined), the pKi in assay [1] was 5.10.

With `CCCCC(=O)N/N=C1\CC2(CCN(C)CC2)OC1C` (centres undefined), the pKi in assay [1] is 4.39.

The compound `COC(=O)N/N=C1\CC2(CCN(C)CC2)OC1C` (centres undefined) gave a pKi in assay [1] of 4.60. Compared with the last compound, the pKi is 0.21 log units higher.

As to `CC1OC2(CCN(C)CC2)C/C1=N\NC(=O)c1ccccc1` (centres undefined), the negative logarithm of the Ki (pKi) in assay [1] was 4.11.

For `CC1OC2(CCN(C)CC2)C/C1=N\NC(=O)CCCc1ccccc1` (centres undefined), in assay [1], the negative-log Ki (pKi) was 4.47.

Compound `CC(=O)N/N=C1\CC2(CCN(C)CC2)OC1C` (centres undefined) returned an Intrinsic activity in assay [2] of 91%. The compound further showed a pKi in assay [1] of 4.00.

The compound `CCCCCCCC(=O)N(C)/N=C1\CC2(CCN(C)CC2)OC1C` (centres undefined) had a pKi in assay [1] of 5.06.

Consider `CC(=O)N(C)/N=C1\CC2(CCN(C)CC2)OC1C` (centres undefined), for which the negative logarithm of the Ki (pKi) in assay [1] is 4.22.

For the compound `CC(C)C(=O)N/N=C1\CC2(CCN(C)CC2)OC1C` (centres undefined), the pKi in assay [1] was 4.55.

Take `CCCC(=O)N/N=C1\CC2(CCN(C)CC2)OC1C` (centres undefined): in assay [1], the negative-log Ki (pKi) is 4.19.

`CCCCCCCC(=O)N/N=C1\CC2(CCN(C)CC2)OC1C` (centres undefined) registered an Intrinsic activity in assay [2] of 81%. Moreover, the negative logarithm of the Ki (pKi) in assay [1] was 5.02.

In assay [1], `CCCC(=O)N(C)/N=C1\CC2(CCN(C)CC2)OC1C` (centres undefined) showed a pKi of 4.80.

With `CCCCCC(=O)N/N=C1\CC2(CCN(C)CC2)OC1C` (centres undefined), the pKi in assay [1] was 4.60.

In assay [1], `CCCCCCCCCC(=O)N/N=C1\CC2(CCN(C)CC2)OC1C` (centres undefined) gave a pKi of 4.84.

Compound `CC1OC2(CCN(C)CC2)C/C1=N\NC(=O)Cc1ccc2ccccc2c1` (centres undefined) had a negative-log Ki (pKi) in assay [1] of 5.00.

`CCCCCCC(=O)N/N=C1\CC2(CCN(C)CC2)OC1C` (centres undefined) gave a pKi in assay [1] of 4.60.

Regarding `CCCCCCCCC(=O)N/N=C1\CC2(CCN(C)CC2)OC1C` (centres undefined), in assay [1], the pKi was 5.05.

For the compound `CC1OC2(CCN(C)CC2)C/C1=N\NC(=O)Cc1ccccc1` (centres undefined), the pKi in assay [1] was 4.52.

As to `CC(C)CC(=O)N/N=C1\CC2(CCN(C)CC2)OC1C` (centres undefined), in assay [1], the negative-log Ki (pKi) is 4.05.

Compound `CCC(=O)N/N=C1\CC2(CCN(C)CC2)OC1C` (centres undefined) had a pKi in assay [1] of 4.12.

Compound `CC1OC2(CCN(C)CC2)C/C1=N\NC(=O)CC1CCCCC1` (centres undefined) showed a pKi in assay [1] of 4.52.

`CC1OC2(CCN(C)CC2)C/C1=N\NC(=O)c1ccc(C2CCCCC2)cc1` (centres undefined) showed an Intrinsic activity in assay [2] of 78%. This compound also had a pKi in assay [1] of 5.32.

`CC1OC2(CCN(C)CC2)C/C1=N\NC(=O)C1CCCCC1` (centres undefined) gave a negative-log Ki (pKi) in assay [1] of 4.42.

Regarding `CC1OC2(CCN(C)CC2)C/C1=N\NC(=O)CCCC1CCCCC1` (centres undefined), the negative logarithm of the Ki (pKi) in assay [1] was 4.87.

For the compound `CC(=O)N/N=C1\CC2(CCNCC2)OC1C` (centres undefined), the negative-log Ki (pKi) in assay [1] is 3.74.

Compound `CC1OC2(CCN(C)CC2)C/C1=N\NC(=O)C(C)(C)C` (centres undefined) had a negative-log Ki (pKi) in assay [1] of 4.82.
